Consider 13 compounds from patent publication US9963434B2, “N-arylmethyl sulfonamide negative modulators of NR2A” (LUC THERAPEUTICS, priority 2013, dated 2018).

For the assay, the target named is NR1/NR2A (Homo sapiens (Human), UniProt Q05586+Q12879). Description: FDSS Ca2+ influx inhibition assay in HEK293 cells expressing NR1/NR2A. Format: cell-based. The settings on record: 3 μM glutamate, 3 μM glycine, 1 mM Ca2+. A digest of the protocol: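 Fluo-8-loaded HEK293 NR1/NR2A cells preincubated 10 min with compound at 10 μM final (0.1% DMSO) in Ca2+/Mg2+-free HBSS with 20 mM HEPES. Stimulated with 3 μM glutamate, 3 μM glycine, 1 mM Ca2+; FDSS recording for 3 min, end/baseline fluorescence ratio compared with MK801.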
Chain of NR1/NR2A (Q12879 23-1464, other chains not shown): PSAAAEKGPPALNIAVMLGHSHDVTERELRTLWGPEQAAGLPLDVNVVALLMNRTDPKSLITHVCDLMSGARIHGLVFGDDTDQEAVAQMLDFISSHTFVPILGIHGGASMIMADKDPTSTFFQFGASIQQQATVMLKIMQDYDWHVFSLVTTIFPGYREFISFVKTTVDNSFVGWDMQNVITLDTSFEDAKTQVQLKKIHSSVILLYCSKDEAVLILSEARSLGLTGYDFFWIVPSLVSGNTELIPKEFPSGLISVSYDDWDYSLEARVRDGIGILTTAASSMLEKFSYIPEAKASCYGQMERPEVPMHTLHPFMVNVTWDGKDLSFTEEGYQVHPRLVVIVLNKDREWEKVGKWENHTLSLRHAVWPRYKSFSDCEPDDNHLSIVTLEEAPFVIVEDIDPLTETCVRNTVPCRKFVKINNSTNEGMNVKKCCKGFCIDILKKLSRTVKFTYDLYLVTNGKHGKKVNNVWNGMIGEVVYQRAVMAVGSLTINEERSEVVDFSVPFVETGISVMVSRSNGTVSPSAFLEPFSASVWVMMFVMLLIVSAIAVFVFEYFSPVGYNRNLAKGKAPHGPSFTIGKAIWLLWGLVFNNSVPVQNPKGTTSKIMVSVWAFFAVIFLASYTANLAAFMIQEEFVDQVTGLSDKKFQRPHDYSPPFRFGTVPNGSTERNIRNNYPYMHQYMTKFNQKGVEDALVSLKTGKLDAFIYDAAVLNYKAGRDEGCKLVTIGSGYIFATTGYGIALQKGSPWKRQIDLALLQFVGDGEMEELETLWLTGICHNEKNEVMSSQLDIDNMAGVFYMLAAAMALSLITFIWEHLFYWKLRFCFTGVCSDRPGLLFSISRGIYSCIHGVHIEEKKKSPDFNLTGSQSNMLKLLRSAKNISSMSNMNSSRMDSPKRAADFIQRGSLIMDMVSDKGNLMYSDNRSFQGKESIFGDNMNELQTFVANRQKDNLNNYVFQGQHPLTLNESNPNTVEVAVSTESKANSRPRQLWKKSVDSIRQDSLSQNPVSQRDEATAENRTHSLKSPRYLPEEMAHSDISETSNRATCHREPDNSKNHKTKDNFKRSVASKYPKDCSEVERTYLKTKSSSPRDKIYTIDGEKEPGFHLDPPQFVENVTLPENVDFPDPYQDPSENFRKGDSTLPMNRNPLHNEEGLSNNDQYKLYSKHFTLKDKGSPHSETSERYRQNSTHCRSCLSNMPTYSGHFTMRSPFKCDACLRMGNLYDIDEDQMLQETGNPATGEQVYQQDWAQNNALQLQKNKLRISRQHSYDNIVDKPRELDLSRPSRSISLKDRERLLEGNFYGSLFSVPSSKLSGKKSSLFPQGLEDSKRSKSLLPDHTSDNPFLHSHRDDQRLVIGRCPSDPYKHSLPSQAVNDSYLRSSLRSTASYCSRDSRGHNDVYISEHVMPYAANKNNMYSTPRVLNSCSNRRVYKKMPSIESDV

Where [1] appears, read: inhibition relative to MK801, read-out: NR2A IC50.

Read-outs that look alike come from different tables or passages of the source.

In the case of `O=C(NCc1cnccn1)c1cnc(CNS(=O)(=O)c2ccc(F)c(Cl)c2)cn1` [5-(3-chloro-4-fluorobenzenesulfon-amidomethyl)-N-(pyrazin-2-ylmethyl)pyrazine-2-carboxamide], the IC50 (read-out: Binned Activity) was in the range of 1 to 10 µM. As for `O=C(NCc1cccs1)c1ccc(CNS(=O)(=O)c2ccc(F)c(Cl)c2)cn1` [5-(3-chloro-4-fluorobenzenesulfon-amidomethyl)-N-(thiophen-2-ylmethyl)pyridine-2-carboxamide], the IC50 was 10 µM under setting [1] and > 10 µM (read-out: Binned Activity). In the case of `C[C@@H](NC(=O)c1cnc(CNS(=O)(=O)c2ccc(F)c(Cl)c2)cn1)c1cncs1` [5-(3-chloro-4-fluorobenzenesulfon-amidomethyl)-N-[(1R)-1-(1,3-thiazol-5-yl)ethyl]pyrazine-2-carboxamide], the IC50 (read-out: Binned Activity) was > 10 µM. Consider `Cc1ncc(CNC(=O)c2ccc(CNS(=O)(=O)c3ccc(F)c(Cl)c3)nn2)s1` [6-(3-chloro-4-fluorobenzenesulfon-amidomethyl)-N-[(2-methyl-1,3-thiazol-5-yl)methyl]pyridazine-3-carboxamide], for which the IC50 by setting is: under setting [1], 10 µM; (read-out: Binned Activity) > 10 µM. Regarding `Cc1ncc(CNC(=O)c2cnc(CNC(=O)c3cccc(F)c3)cn2)s1` [5-{[(3-fluorophenyl)formamido]methyl}-N-[(2-methyl-1,3-thiazol-5-yl)methyl]pyrazine-2-carboxamide], the IC50 is, setting by setting: under setting [1], 10 µM; (read-out: Binned Activity) > 10 µM.

Take `Cc1cnc(CNC(=O)c2ccc(CNS(=O)(=O)c3ccc(F)c(Cl)c3)nc2)cn1` [6-(3-chloro-4-fluorobenzenesulfon-amidomethyl)-N-[(5-methylpyrazin-2-yl)methyl]pyridine-3-carboxamide]: the IC50 (read-out: Binned Activity) fell in the range of 0.1 to 1 µM. On to `Cn1nccc1CNC(=O)c1ccc(CNS(=O)(=O)c2ccc(F)c(Cl)c2)nc1` [6-(3-chloro-4-fluorobenzenesulfon-amidomethyl)-N-[(1-methyl-1H-pyrazol-5-yl)methyl]pyridine-3-carboxamide], for which the IC50 was 10 µM under setting [1] and > 10 µM (read-out: Binned Activity).

With `Cn1cccc1CNC(=O)c1ccc(CNS(=O)(=O)c2ccc(F)c(Cl)c2)cn1` [5-(3-chloro-4-fluorobenzenesulfon-amidomethyl)-N-[(1-methyl-1H-pyrrol-2-yl)methyl]pyridine-2-carboxamide], for the setting “read-out: Binned Activity”, the IC50 lay within 1 to 10 µM. Take `Cc1ncc(CNC(=O)c2cnc(CNC(=O)c3cccc(Cl)c3)cn2)s1` [5-{[(3-chlorophenyl)formamido]methyl}-N-[(2-methyl-1,3-thiazol-5-yl)methyl]pyrazine-2-carboxamide]: the IC50 runs as follows: under setting [1], 10 µM; (read-out: Binned Activity) > 10 µM.

As to `Cc1ncc(CNC(=O)c2ccc(CNS(=O)(=O)c3cc(F)cc(F)c3)cn2)s1` [5-(3,5-difluorobenzenesulfon-amidomethyl)-N-[(2-methyl-1,3-thiazol-5-yl)methyl]pyridine-2-carboxamide], the IC50 under setting [1] came to 10 µM and the IC50 (read-out: Binned Activity) is > 10 µM. For `COc1ccc(CCNC(=O)c2ccc(CNS(=O)(=O)c3ccc(F)c(Cl)c3)nn2)cc1` [6-(3-chloro-4-fluorobenzenesulfon-amidomethyl)-N-[2-(4-methoxyphenyl)ethyl] pyridazine-3-carboxamide], the IC50 was 10 µM under setting [1] and > 10 µM (read-out: Binned Activity). Taken in the same sequence, the figures for `Cc1nc(CNC(=O)c2ccc(CNS(=O)(=O)c3ccc(F)c(Cl)c3)nc2)cs1` [6-(3-chloro-4-fluorobenzenesulfon-amidomethyl)-N-[(2-methyl-1,3-thiazol-4-yl)methyl]pyridine-3-carboxamide] were 10 µM and > 10 µM. Taken in the same sequence, the figures for `Cc1ncc(CNC(=O)c2ccc(CNC(=O)c3ccc(Cl)cc3Cl)cn2)s1` [5-{[(2,4-dichlorophenyl)form-amido]methyl}-N-[(2-methyl-1,3-thiazol-5-yl)methyl]pyridine-2-carboxamide] were 10 µM and > 10 µM.
